Measured values taken from patent publication US6541463B1, “Inhibitors of type 5 and type 3 17β-hydroxysteroid dehydrogenase and methods for their use” (Endorecherche, Inc., priority 1998, dated 2003).

Columns and labels:
ZR-75-1 cells [1] = experiment: Antiestrogenic activity: inhibition of E2-induced proliferation of ZR-75-1 cells; format: cell-based, human; parameters: ZR-75-1 Activity, E2 / ZR-75-1 Activity E2 E^−6: unit not given here; settings: for ZR-75-1 Activity E2 E^−6: with E2, E^−6
Description: The manner in which the inhibition is determined is described in “Other Tests; C-Estrogenic/Antiestrogenic Activity”. Lower numbers are desirable. ND means that a determination was not done.
(§1) Estrogenic/antiestrogenic activity of some preferred compounds has been measured using the […] human breast cancer cell line as described in more detail below.
(§2) All media and medium supplments were purchased from Sigma. Cells were subcultured weekly by treatment with a pancreatic solution containing EDTA (0.2 g/L). The cell cultures used for the experiments herein describied were between passages 89 and 94.
(§3) Cells in their logarithmic growth phase were harvested, briefly centrifuged, and resuspended in RPMI 1640. Cells were then plated in triplicate in LIMBRO 24-well plastic culture plates (2 cm^2/well). Since plating density influences the effect of hormones on ZR-75-1 cell growth, cells were plated at a density of 1×10^4 cells/well. […] Control cultures received the ethanol vehicle only. Cells were then allowed to grow at 37° C. for 10 days with medium changes (of identical composition) every 2 days.
(§4) After E2 and/or antiestrogen treatment, cells were harvested by addition of 0.5 ml of a pancreatin solution (Sigma) for 5-10 min at 37° C. before addition of 0.5 mnl of RPMI 1640 containing 5% dextran coated […] bovine serum in order to block enzymatic action. Cell number (0.10 ml aliquot) was determined by measurement of DNA content as previously described (Simard et al., Endocrinology 126: 3223-3231,1990).

ZR-75-1 cells [2] = experiment: Estrogenic activity: stimulation of proliferation of ZR-75-1 cells; format: cell-based, human
Description: […] The manner in which the stimulation is determined is described in “Other Tests; C-Estrogenic/Antiestrogenic activity” Lower numbers are desirable. ND means that a determination was not done.
as §1, §2, §3, §4

[3] = In vivo assay of oral bioavailability (plasma AUC 0-7 h by LCMS/MS); parameters: species or system male Sprague Dawley rats; settings: for AUC(0-t): male, Sprague-Dawley [Crl:CD(SD)Br]
Description: In column 1, the oral bioavailability of preferred type 5 inhibitors, expressed in ng/mL.h, was determined as described below in “Other Tests, A-In Vivo Assays of Bioavailability of Human Type 5 17β-HSD Inhibitors”. Higher number are desirable. ND means that a determination was not done.
The measurements at various time intervals were for values greater than or equal to 1.0 ng/mL and less than or equal to 50 ng/mL.
Male Sprague-Dawley rats [Crl:CD(SD)Br] weighing 275-350 g were obtained from Charles-River Canada Inc. and housed 2 per cage during the acclimation period and individually during the study period. The animals were maintained under a regimen of 12 hours light: 12 hours dark (lights on at 08:00). Animals received certified Rodent feed (Lab Diet #5002, pellets) and tap water ad libitum. Rats were fasted (access to water only) starting on the evening prior to dosing.
Each compound to be tested was administered to three animals as a suspension in 0.4% methylcellulose by oral gavage at a dose of 0.5 mg/rat (1.0 ml/rat). Four to eight new compounds were tested each day and one group of animals received megestrol acetate (MGA) under the same conditions on each dosing day as a reference. […] Blood samples were immediately transferred into a refrigerated 0.75 ml Microtainer containing EDTA and kept in an ice-water bath until centrifugation at 3000 rpm for 10 minutes. Plasma separation was performed rapidly (less than 50 minutes) after blood collection. One aliquot of 0.25 ml of plasma was then transferred into a borosilicate tube (13×100) and was rapidly frozen on dry-ice. Plasma samples were kept at −80° C. until measurement of plasma concentration of the inhibitor(s) by LCMS/MS.
Aliquots of rat plasma (0.250 mL) were transferred to 13×100 mm borosilicate tubes. Water (1.0 mL) and internal standard solution (0.1 mL) were added to each sample and vortexed for 2 min. A mixture of N-butyl chloride and acetone (v:v, 7:3) (3 mL) was added to each sample and vortexed for 2 min. This step was repeated and the combined organic phases were evaporated to dryness under nitrogen in a Turbo Vap evaporator at 35° C. The residue was reconstituted with 1 mL of methanol and evaporated in a Turbo Vap evaporator at 35° C. The final extract was reconstituted into 0.1 mL of methanol/water (v:v, 75:25) and then transferred into a conical vial for injection into the mass spectrometer.
The assay procedure was performed by analyzing, in duplicate, rat plasma samples spiked at six different Type 5 inhibitor concentrations (1, 2, 5, 10, 20 and 50 ng/mL). The lower limit of quantitation (LOQ) was established at 1.0 ng/mL. Values lower than 1.0 ng/mL were expressed as below limit of quantification (BLQ). […]

[4] = Table 4′, E2-induced proliferation, 3E^−8
[5] = 0.5 mg, Table 4′, oral, rat plasma

| Compound | ZR-75-1 Activity, E2 3E^−8 (ZR-75-1 cells [1]; [4]) | ZR-75-1 Activity, Basal E^−6 (ZR-75-1 cells [2]; Table 4′) [%] | ZR-75-1 Activity, Basal E^−8 (ZR-75-1 cells [2]; Table 4′) [%] | AUC(0-t) [3, 5] [ng·h/mL] | further results |
| --- | --- | --- | --- | --- | --- |
| COC(=O)CCCC(=O)O[C@]1(C(C)=O)CC[C@H]2[C@@H]3C=C(C)C4=CC(=O)CC[C@]4(C)[C@H]3CC[C@@]21C [EM-1007, 6-Methyl-4,6-pregnadien-17α-ol-3,20-dione 4′-Carbomethoxybutyrate] |  |  |  |  | ZR-75-1 Activity, E2 (ZR-75-1 cells [1]; E2): −52; ZR-75-1 Activity, E2 (ZR-75-1 cells [1]; E2, E^−8): −41; ZR-75-1 Activity, Basal (ZR-75-1 cells [2]; E^−6, in %): 0; ZR-75-1 Activity, Basal (ZR-75-1 cells [2]; E^−8, in %): −8; Oral Bioavailability AUC 0-7h ([3]; AUC 0-7h): 16.4 ng·h/mL |
| C[C@]12CCC3c4ccc(O)cc4CCC3C1CC[C@@]21CCCC(=O)O1 (stereo partly drawn) [EM-919, 1,3,5(10)-estratrien-3-ol-17(R)-spiro-2′(6′-oxo)tetrahydropyran] | −18% | −20 | 0 | 4.8 ± 0.8 |  |
| C[C@]12CCC3c4cc([N+](=O)[O-])c(O)cc4CCC3C1CC[C@@]21CCCC(=O)O1 (stereo partly drawn) [EM-1124, 2-Nitro-1,3,5(10)-estraetriene-3-ol-17(R)-spiro-2′-(6′-oxo)tetrahydropyran] | 0% | 12 | 0 |  | AUC(0-t) ([3]; rat, plasma, po, 0.5 mg, Table 4′, cell marked (8 h)): 5.1 ± 1 ng·h/mL |
| CC1(C)CC[C@@]2(CCC3C4CCc5cc(C(N)=O)ccc5C4CCC32C)OC1=O (stereo partly drawn) [EM-1404] | 0% | 0 | 0 | 3840 ± 197 |  |
| COCCOc1cc2c(cc1C#N)C1CC[C@@]3(C)C(CC[C@@]34CCC(C)(C)C(=O)O4)C1CC2 (stereo partly drawn) [EM-1396] | +12% | 0 | 0 | 196 ± 53 |  |
| CC1CCC2(CCC3C4CCc5cc(O)c([N+](=O)[O-])cc5C4CCC32C)OC1=O [EM-1131, 2-Nitro-1,3,5(10)-estratrien-3-ol-17(R)-spiro-2′-(5′-methyl-6′-oxo)tetrahydropyran] | 0% | 15 | 7 | 124 ± 27 |  |
| CCC[C@@H]1CC2C3C=CC4=CC(=O)CC[C@]4(C)C3CC[C@]2(C)C1=O (stereo partly drawn) [EM-1097] |  |  |  |  | ZR-75-1 Activity, E2 3E^−8 (ZR-75-1 cells [1]; with E2, 3E^−8): 0; ZR-75-1 Activity E2 E^−6 (ZR-75-1 cells [1]): 0; ZR-75-1 Activity, Basal E^−6 (ZR-75-1 cells [2]): 10; ZR-75-1 Activity, Basal E^−8 (ZR-75-1 cells [2]): −8; AUC(0-t) ([3]; rat, plasma, po, 0.5 mg/rat): 122 ± 5.7 ng·h/mL |
| COc1ccc2c(c1)C(=O)CC1C3CCC4(CCC(C)(C)C(=O)O4)C3(C)CCC21O (stereo not drawn) [EM-1386] | 0% | −12 | 0 | 5600 ± 789 |  |
| CC(C)C[C@@H]1CC2C3C=CC4=CC(=O)CC[C@]4(C)C3CC[C@]2(C)C1=O (stereo partly drawn) [EM-1273-CS] |  |  |  |  | ZR-75-1 Activity, E2 3E^−8 (ZR-75-1 cells [1]; with E2, 3E^−8): 0; ZR-75-1 Activity E2 E^−6 (ZR-75-1 cells [1]): −30; ZR-75-1 Activity, Basal E^−6 (ZR-75-1 cells [2]): 0; ZR-75-1 Activity, Basal E^−8 (ZR-75-1 cells [2]): 0; AUC(0-t) ([3]; rat, plasma, po, 0.5 mg/rat): 85 ± 26 ng·h/mL |
| COCCOc1cc2c(cc1C(N)=O)C1CC[C@@]3(C)C(CC[C@@]34CCC(C)(C)C(=O)O4)C1CC2 (stereo partly drawn) [EM-1424, 2-Carbamoyl-3-(2″-methoxyethyloxy)-1,3,5(10)-estratrien 17(R)-spiro-2′-(5′,5′-dimethyl-6′-oxo)tetrahydropyran] | −11% | 0 | 0 | 368 ± 70 |  |
| COCCOc1cc2c(cc1C(=O)OC)C1CC[C@@]3(C)C(CC[C@@]34CCC(C)(C)C(=O)O4)C1CC2 (stereo partly drawn) [EM-1402-CS, 2-Carbomethoxy-3-(2″-methoxyethyloxy)-1,3,5(10)-estratrien 17(R)-spiro-2′-(5′,5′-dimethyl-6′-oxo)tetrahydropyran] | 0% | −10 | 0 | 214 ± 36 | inhibition at 1 µM (ZR-75-1 cells [1]; Homo sapiens, ZR-75-1, 10^−6 M inhibitor, negative number = stimulation reduced, read-out: percentage of inhibition of E2-induced proliferation of ZR-75-1 cells): 61% |
| CCC(=O)O[C@]1(C(C)=O)CCC2C3C=C(C)C4=CC(=O)C[C@H](C)[C@]4(C)C3CC[C@@]21C (stereo partly drawn) [CS-243] |  |  |  |  | ZR-75-1 Activity, E2 (ZR-75-1 cells [1]; E2): −57; ZR-75-1 Activity, E2 (ZR-75-1 cells [1]; E2, E^−8): −60; ZR-75-1 Activity, Basal (ZR-75-1 cells [2]; E^−6, in %): 0; ZR-75-1 Activity, Basal (ZR-75-1 cells [2]; E^−8, in %): 0; AUC(0-t) ([3]; rat, plasma, po, 0.5 mg): 11 ± 2.5 ng·h/mL |
| CC1(C)CCC2(CCC3C4CCc5ccccc5C4CCC32C)OC1=O (stereo not drawn) [CS-224] | 13% | 128 | 16 | 18 ± 3.5 |  |
